Measured values from patent publication US20020042374A1, “METHOD OF TREATING INSULIN INSENSITIVITY AND SYNDROME X” (priority 1997, published 2002).
Read-outs that look alike come from different tables or passages of the source. Positions of bridges follow the written chain, without caps; N, C: chain ends. Non-standard residues stand in square brackets, D forms with d. Residues, ends and D or L forms follow the SMILES beside them.

Legend:
human SSTR-2 = human SSTR-2 (Homo sapiens, UniProt P30874); assay: Somatostatin receptor binding assay, hSSTR-2
human SSTR-1 = human SSTR-1 (Homo sapiens, UniProt P30872); assay: Somatostatin receptor binding assay, hSSTR-1
human SSTR-5 = human SSTR-5 (Homo sapiens, UniProt P35346); assay: Somatostatin receptor binding assay, hSSTR-5
[1] = test system: Obese (fa/fa) Zucker rats; assay: Lipidemia study, plasma glycerol and triglycerides; format: in vivo, rat
Protocol: Obese (fa/fa) Zucker rats were treated as in example 1 above. On the last day of treatment (day 6), food was removed at 5:00 p.m., and the rats were fasted overnight. At 9:00 a.m. the next day, the animals were subjected to a glucose challenge, given as 0.8 gram/kg of glucose orally. Periodic 400 μl of blood samples were taken from the tail vein (Peterson, R. G., ILAR News, 32:16-19 (1990)) 60 min. and 30 min. before and at 30, 60, 90, and 120 min. after the administration of the glucose challenge (0.8 gram/kg orally). Aprotinin (Traysylol, Bayer UK, Hayward's Health, W. Sussex, U.K.) and heparin (Sigma Chemical Co., Poole, Dorset, U.K.) were added to the blood samples to a final concentration of 400 KIU/ml and 100 units/ml, respectively. Plasma fractions were prepared from these samples by centrifugation at 4000×G in a microfuge, for the estimation of triglycerides and glycerol. Samples were then stored at −80° C. until assayed.
Plasma glycerol and triglycerides were determined using the Sigma Enzymatic (Tinder) calorimetric assay kit (Cat #337-B, Sigma Chemical Co., Poole, Dorset, U.K.) and measuring absorbance at 540 nm in a spectrophotometer.

[2] = test system: fatty (fa/fa) Zucker rats; conditions: 3 mg/kg s.c. twice daily, 6 days
[3] = test system: fatty (fa/fa) Zucker rats; assay: Insulin sensitivity study, oral glucose challenge after one week treatment; format: in vivo, rat; conditions: 3 mg/kg s.c. twice daily, 7 days
Protocol: Male fatty Zucker rats (Harlan-Olac, Bicester, Oxon, U.K.), which were 15-17 weeks old, were randomly divided into two groups. The animals were house in pairs in a normal 12 hour light:12 hour darkness cycle at 20±2° C. and fed a standard laboratory rat diet (Beekay rat and mouse diet, Bantin & Kingman, Hull, Humberside, U.K.) ad libitum. For the group assigned to receive drug treatment, the rats received BIM-23268C at 3 mg/kg, by subcutaneous injection, twice a day at 10:00 AM and 5:00 PM. The other group, the control group, was treated with a subcutaneous injection of 0.lml/100 g of saline twice a day at 10:00 AM and 5:00 PM. […] On the last day of treatment, at 5:00 PM food was removed, and the rats were fasted overnight.
A method for assessing insulin sensitivity is to administer an oral glucose challenge and monitoring the secretion of insulin and disposal of glucose from the blood stream over a 240 min period (Bergman, R. N., et al., Endocrine Review 6:45-86 (1985)). […] 20 μl blood samples were taken from tail vein (Abdel-Halim, S. M., et al., Diabetes 43:281-288 (1994)) at −60 min, −30 min, 0 min, 30 min, 60 min, 90 min, 120 min, and 240 min.
The 20 μl samples were taken into 380 μl of hemolysis reagents (Sigma, Poole, Dorset, UK) containing 50 mg/liter of digitonin (Cat# D-1407) and 100 mg/liter of Maleimide (M-3766). From this, 100 μl of the hemolysed blood sample was added to 0.9 ml of Tinder reagent (Sigma Enzymatic calorimetric assay for blood glucose, Cat# 315-100, Sigma Chemical Co. Ltd, Poole, Dorset, UK). Blood glucose was determined according to vendor's recommendation at 505 nm.
Insulin was measured by the conventional radioimmunoassay method as described (Dunmore, S., & Beloff-Chain, A., J Endocrinol. 92:15-21 (1982)). Samples were assayed in triplicates with a 1:30000 dilution of an insulin antiserum (from guinea pig)raised in the laboratory (Dunmore, S. J., et al., J. Endocrinol. 137:375-381 (1993), and using ^125I-labelled bovine insulin, iodinated by the chloramine T method (Sambrook, et al., Molecular Cloning- A Laboratory Manual, Ed. 2., Cold Spring Harbor Laboratory Press, 1989). Rat insulin (2000U/0.1 ml, Novo Nordisk Laboratories, Basingstoke, Hants, U.K.) was used as a standard in the assay. The standards and samples were diluted in assay buffer containing NaH2PO4 5.7 g/L, bovine serum albumin (Sigma A4378, Sigma Chemical Co. Ltd., Poole, Dorset, UK) 5.0 g/L, NaN3 1.0 g/L buffered to pH 7.4). Antibody-bound insulin was separated on from free insulin by the addition of a second antibody (donkey anti-guinea pig Ig) coated on cellulose, Sac-Cel (IDS, Boldon, Tyne & Wear, UK). The antibody-bound insulin precipitate was separated by centrifugation. Counts bound were measured on an LKB Rackgamma solid scintillation counter.

human SSTR-3 = human SSTR-3 (Homo sapiens, UniProt P32745); assay: Somatostatin receptor binding assay, hSSTR-3
human SSTR-4 = human SSTR-4 (Homo sapiens, UniProt P31391); assay: Somatostatin receptor binding assay, hSSTR-4
[4] = 3 mg/kg s.c. twice daily, 6 days, samples 30 and 60 minutes before oral glucose challenge, FIG. 1/2
[5] = throughout the 2-hour test period after oral glucose challenge

Sequence of human SSTR-2 (P30874 whole entry): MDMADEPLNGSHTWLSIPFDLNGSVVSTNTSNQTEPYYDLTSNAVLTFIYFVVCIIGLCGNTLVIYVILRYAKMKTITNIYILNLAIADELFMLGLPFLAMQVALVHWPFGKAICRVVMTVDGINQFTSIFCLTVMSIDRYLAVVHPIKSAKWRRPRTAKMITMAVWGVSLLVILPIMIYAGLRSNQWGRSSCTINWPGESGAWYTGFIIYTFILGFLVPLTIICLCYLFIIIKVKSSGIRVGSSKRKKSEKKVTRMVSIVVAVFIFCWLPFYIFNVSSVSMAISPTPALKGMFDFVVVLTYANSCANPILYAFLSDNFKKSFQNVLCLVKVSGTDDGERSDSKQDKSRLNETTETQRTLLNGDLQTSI
Sequence of human SSTR-5 (P35346 whole entry): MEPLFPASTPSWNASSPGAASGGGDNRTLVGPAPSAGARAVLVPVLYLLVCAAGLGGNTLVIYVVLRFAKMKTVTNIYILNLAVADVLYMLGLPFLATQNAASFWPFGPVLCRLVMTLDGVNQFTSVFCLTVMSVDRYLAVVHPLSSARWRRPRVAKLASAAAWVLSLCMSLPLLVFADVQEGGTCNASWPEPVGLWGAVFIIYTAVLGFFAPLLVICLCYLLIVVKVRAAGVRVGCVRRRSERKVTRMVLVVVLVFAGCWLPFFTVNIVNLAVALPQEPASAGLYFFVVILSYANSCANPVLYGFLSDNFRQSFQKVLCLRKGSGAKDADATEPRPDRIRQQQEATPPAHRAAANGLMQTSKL
Sequence of human SSTR-1 (P30872 whole entry): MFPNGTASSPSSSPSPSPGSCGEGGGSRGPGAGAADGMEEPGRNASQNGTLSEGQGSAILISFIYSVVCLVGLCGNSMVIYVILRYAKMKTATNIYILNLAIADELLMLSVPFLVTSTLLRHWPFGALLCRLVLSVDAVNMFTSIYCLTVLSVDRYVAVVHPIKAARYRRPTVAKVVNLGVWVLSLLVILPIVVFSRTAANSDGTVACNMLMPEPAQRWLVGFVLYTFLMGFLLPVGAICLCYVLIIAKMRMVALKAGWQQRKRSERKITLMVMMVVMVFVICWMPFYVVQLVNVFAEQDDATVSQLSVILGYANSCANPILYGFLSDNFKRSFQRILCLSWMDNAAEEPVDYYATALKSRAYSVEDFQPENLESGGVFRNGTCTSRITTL
Sequence of human SSTR-4 (P31391 whole entry): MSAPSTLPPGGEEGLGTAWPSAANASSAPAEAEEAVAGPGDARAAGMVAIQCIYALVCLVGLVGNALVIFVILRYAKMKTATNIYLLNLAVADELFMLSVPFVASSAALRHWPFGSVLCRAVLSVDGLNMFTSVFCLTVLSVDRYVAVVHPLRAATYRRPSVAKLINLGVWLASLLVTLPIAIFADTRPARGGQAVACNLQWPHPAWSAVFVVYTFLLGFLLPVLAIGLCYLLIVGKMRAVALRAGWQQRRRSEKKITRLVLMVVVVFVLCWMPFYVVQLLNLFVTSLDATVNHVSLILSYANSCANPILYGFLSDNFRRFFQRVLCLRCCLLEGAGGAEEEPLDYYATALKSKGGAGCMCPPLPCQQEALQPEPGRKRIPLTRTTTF
Sequence of human SSTR-3 (P32745 whole entry): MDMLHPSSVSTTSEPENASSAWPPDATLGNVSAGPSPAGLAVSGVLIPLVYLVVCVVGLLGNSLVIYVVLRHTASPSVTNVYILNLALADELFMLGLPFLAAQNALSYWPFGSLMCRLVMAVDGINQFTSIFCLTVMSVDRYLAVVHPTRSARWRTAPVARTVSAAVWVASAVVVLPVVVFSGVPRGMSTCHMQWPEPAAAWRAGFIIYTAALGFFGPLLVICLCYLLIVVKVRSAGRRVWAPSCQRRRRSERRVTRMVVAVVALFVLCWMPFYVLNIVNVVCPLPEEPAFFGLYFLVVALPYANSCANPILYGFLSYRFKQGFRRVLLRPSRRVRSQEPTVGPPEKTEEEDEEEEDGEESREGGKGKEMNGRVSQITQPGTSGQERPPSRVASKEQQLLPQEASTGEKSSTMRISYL

C[C@@H](O)[C@@H]1NC(=O)[C@H](CCCCN)NC(=O)[C@@H](Cc2c[nH]c3ccccc23)NC(=O)[C@H](Cc2ccccc2)NC(=O)[C@H](Cc2ccccc2)NC(=O)[C@@H](N)CSSC[C@@H](C(N)=O)NC(=O)[C@H](Cc2ccccc2)NC1=O [BIM-23268, H-Cys-Phe-Phe-D-Trp-Lys-Thr-Phe-Cys-NH2] (H-CFF[dW]KTFC-NH2; disulfide 1-8)
Ki (human SSTR-2; read-out: Ki hSSTR-2): 15.1 nM
Ki (human SSTR-1; read-out: Ki hSSTR-1): 1230 nM
Ki (human SSTR-5; read-out: Ki hSSTR-5): 0.42 nM
plasma glycerol [1, 4]: significantly lowered
plasma triglycerides [1, 4]: significantly lowered
hypertriglyceridemia ([1]; 6-day treatment, 3 mg/kg s.c. twice daily): effective in reducing hypertriglyceridemia
plasma glycerol [1, 5]: significantly lower
plasma triglycerides [1, 5]: significantly lower
amount of food consumed over the entire treatment period versus control [2]: no difference
body weight gain versus control [2]: lower
toxic effect, appearance of treated group [2]: appeared healthy
group mean weight after six days ([2]; 413.6 at start of trial, control 414.09 to 418.89): 413.6
average food consumption ([2]; control 26.0): 25.9 g/rat/day
insulin-sensitivity [3]: produced an improvement in insulin-sensitivity
glucose tolerance ([3]; oral glucose 0.8 g/kg after overnight fast): did not show an impairment in glucose tolerance
glucose stimulated insulin secretion to the glucose challenge ([3]; oral glucose 0.8 g/kg after overnight fast, vs saline group): significant suppression
plasma glucose profile versus untreated group ([3]; oral glucose 0.8 g/kg, up to 240 min): not significantly different

NCCCC[C@@H]1NC(=O)[C@@H](Cc2c[nH]c3ccccc23)NC(=O)[C@H](Cc2ccccc2)NC(=O)[C@H](Cc2ccccc2)NC(=O)[C@@H](N)CSSC[C@@H](C(N)=O)NC(=O)[C@H](Cc2ccccc2)NC(=O)[C@H](CO)NC1=O [BIM-23284, H-Cys-Phe-Phe-D-Trp-Lys-Ser-Phe-Cys-NH2] (H-CFF[dW]KSFC-NH2; disulfide 1-8)
Ki (human SSTR-2): 19.3 nM
Ki (human SSTR-1): 27.9 nM
Ki (human SSTR-5): 0.85 nM
Ki (human SSTR-3): 35.6 nM
Ki (human SSTR-4): 58.6 nM

C[C@@H](O)[C@@H]1NC(=O)[C@H](CCCCN)NC(=O)[C@@H](Cc2c[nH]c3ccccc23)NC(=O)[C@H](Cc2ccc(O)cc2)NC(=O)[C@H](Cc2ccccc2)NC(=O)[C@@H](N)CSSC[C@@H](C(N)=O)NC(=O)[C@H](Cc2ccccc2)NC1=O [BIM-23295, H-Cys-Phe-Tyr-D-Trp-Lys-Thr-Phe-Cys-NH2] (H-CFY[dW]KTFC-NH2; disulfide 1-8)
Ki (human SSTR-2): 6.19 nM
Ki (human SSTR-1): 86.9 nM
Ki (human SSTR-5): 0.34 nM
Ki (human SSTR-3): 9.7 nM
Ki (human SSTR-4): 3.4 nM

C[C@@H](O)[C@@H]1NC(=O)[C@H](CCCCN)NC(=O)[C@@H](Cc2c[nH]c3ccccc23)NC(=O)[C@H](Cc2ccc(O)c(I)c2)NC(=O)[C@H](Cc2ccccc2)NC(=O)[C@@H](N)CSSC[C@@H](C(N)=O)NC(=O)[C@H](Cc2ccccc2)NC1=O [BIM-23313, H-Cys-Phe-Tyr(I)-D-Trp-Lys-Thr-Phe-Cys-NH2]
Ki (human SSTR-1; membranes of transfected CHO-K1 cells, [125I-Tyr11]somatostatin-14 0.05 nM, read-out: Ki hSSTR-1): 15.1 nM
